Consider seven molecules from BindingDB's records for doi:10.1016/j.bioorg.2016.08.011 (Recep Tayyip Erdogan University, 2016).

What is called IC50 is the concentration at which inhibition is half-maximal. Low values mean greater potency in that assay, high ones weaker potency in that assay.

Alpha-glucosidase MAL12, sequence (P53341 whole entry): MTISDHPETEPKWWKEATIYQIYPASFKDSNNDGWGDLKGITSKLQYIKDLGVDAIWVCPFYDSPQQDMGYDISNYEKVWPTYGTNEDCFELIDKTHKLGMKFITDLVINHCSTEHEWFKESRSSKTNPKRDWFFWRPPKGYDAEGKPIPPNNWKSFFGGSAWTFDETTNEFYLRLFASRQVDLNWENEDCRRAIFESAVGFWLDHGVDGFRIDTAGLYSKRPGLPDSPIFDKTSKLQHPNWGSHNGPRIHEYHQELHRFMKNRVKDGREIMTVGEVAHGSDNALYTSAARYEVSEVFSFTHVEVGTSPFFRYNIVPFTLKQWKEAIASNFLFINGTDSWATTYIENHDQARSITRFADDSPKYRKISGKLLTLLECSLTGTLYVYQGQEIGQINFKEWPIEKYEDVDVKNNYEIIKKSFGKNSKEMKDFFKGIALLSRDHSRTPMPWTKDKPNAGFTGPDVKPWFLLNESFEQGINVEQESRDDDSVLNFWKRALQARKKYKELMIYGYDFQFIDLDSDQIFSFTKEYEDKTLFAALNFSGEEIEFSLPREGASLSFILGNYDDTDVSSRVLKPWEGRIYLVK

The target of the test is Alpha-glucosidase MAL12 (Saccharomyces cerevisiae (strain ATCC 204508 / S288c), UniProt P53341). As to the kind of experiment: α-Glucosidase inhibition assay. Particulars: pH 6.8. The method, then:
α-Glucosidase inhibition assay was performed spectrophotometrically. α-Glucosidase from Saccharomyces cerevisiae (Sigma-Aldrich) was dissolved in phosphate buffer (pH 6.8, 50 mM). Test compounds were dissolved in DMSO. In 96-well microtiter plates, 20 µL of test sample, 20 µL of enzyme (20 mU/mL) and 135 µL of buffer were added and incubated for 15 min at 37 °C. After incubation, 25 µL of p-nitrophenyl-α-D-glucopyranoside (2 mM, Sigma Aldrich) was added and change in absorbance was monitored for 20 min at 400 nm. Test compound was replaced by DMSO (10% final) as control. […] The assays were done in triplicate.
Molecule `Sc1nnc(Cn2c(Cc3ccc(Cl)cc3Cl)nc3ccccc32)o1` [5-{[2-(2,4-Dichlorobenzyl)-1H-benzimidazol-1-yl]methyl}-1,3,4-oxadiazole-2-thiol (5a)] came in with a half-maximal inhibitory concentration (IC50) of 254 µM.
The same measure for `O=[N+]([O-])c1ccc2nc(Cc3ccc(Cl)cc3Cl)n(Cc3nnc(S)o3)c2c1` [5-{[2-(2,4-Dichlorobenzyl)-6-nitro-1H-benzimidazol-1-yl]methyl}-1,3,4-oxadiazole-2-thiol (5b)]: 26.9 µM; for `O=C(Cn1c(Cc2ccc(Cl)cc2Cl)nc2ccccc21)NNC(=S)Nc1ccccc1` [2-{[2-(2,4-Dichlorobenzyl)-1H-benzimidazol-1-yl]acetyl}-N-phenylhydrazinecarbothioamide (6a)]: 141 µM.
The same measure for `O=[N+]([O-])c1cccc2nc(Cc3ccc(Cl)cc3Cl)n(Cc3nnc(S)n3-c3ccccc3)c12` [5-{[2-(2,4-Dichlorobenzyl)-7-nitro-1H-benzimidazol-1-yl]methyl}-4-phenyl-4H-1,2,4-triazole-3-thiol (7b)]: 40.5 µM; for `Clc1ccc(Cc2nc3ccccc3n2Cc2nnc(Nc3ccccc3)s2)c(Cl)c1` [5-{[2-(2,4-Dichlorobenzyl)-1H-benzimidazol-1-yl]methyl}-N-phenyl-1,3,4-thiadiazol-2-amine (8a)]: 158 µM; for `NNC(=O)Cn1c(Cc2ccc(Cl)cc2Cl)nc2ccc([N+](=O)[O-])cc21` [2-[2-(2,4-Dichlorobenzyl)-6-nitro-1H-benzimidazol-1-yl]acetohydrazide (4b)]: 10.5 µM.
For `O=C(Cn1c(Cc2ccc(Cl)cc2Cl)nc2ccc([N+](=O)[O-])cc21)NNC(=S)Nc1ccccc1` [2-{[2-(2,4-Dichlorobenzyl)-6-nitro-1H-benzimidazol-1-yl]acetyl}-N-phenyl hydrazinecarbothioamide (6b)], the IC50 is 93 µM.
